Reference: publication PMC10611578, “Aβ1-6A2V(D) peptide, effective on Aβ aggregation, inhibits tau misfolding and protects the brain after traumatic brain injury” (Molecular Psychiatry, 2023)
Square brackets hold non-standard residues; d marks the D form. Peptide text beside a SMILES is read from it.

Test system: misfolded toxic tau in P301L mouse brain homogenate; C. elegans
Type: in vivo, Caenorhabditis elegans (Bristol N2)
Experimental: Bristol N2 nematodes were obtained from the Caenorhabditis elegans Genetic Center (CGC, University of Minnesota, Minneapolis, MN, USA) and propagated at 20 °C on solid Nematode Growth Medium (NGM) seeded with E. coli OP50 (CGC) for food. We used the bleaching technique to prepare age-synchronized animals. C. elegans at the first larval stage were then transferred to fresh NGM plates and grown at 20 °C. At the L3-L4 larval stage, nematodes were collected with M9 buffer, centrifuged, and washed twice with 10 mM PBS (pH 7.4) to eliminate bacteria. Worms were incubated for 2 h at room temperature with orbital shaking, in the absence of E. coli, with brain homogenates from Non-tg and P301L mice (30 µg protein/100 worms/100 µL 10 mM PBS, pH 7.4) in the presence or absence of 50 µM Aβ1-6A2V(D), 50 µM TAT, or 0.1–200 µM Aβ1-6A2V-TAT(D). Control worms were treated with 10 mM PBS, pH 7.4 (Vehicle), 50 µM Aβ1-6A2V (D), 50 µM Aβ1-6A2V-TAT(D) or 50 µM TAT (100 worms/100 µL). Pericontusional tissue homogenates from young WT TBI mice 12 months post-injury or aged-matched sham mice were administered to worms (30 µg protein/100 worms/100 µL) in the absence or presence of 50 µM Aβ1-6A2V-TAT(D). Pericontusional tissue homogenates from 3xTg-AD TBI mice, as well as pericontusional tissues from aged WT TBI, previously treated or not with intranasal 50 mg/kg b.w. […] Homogenates from naive or sham mice were administered to worms as controls for 3xTg-AD and aged WT TBI mice, respectively ((30 µg protein/100 worms/100 µL 10 mM PBS, pH 7.4). As an additional negative control, 10 mM PBS, pH 7.4 (100 worms/100 µL) was administered to nematodes. Worms were then plated onto NGM plates seeded with OP50 E. coli, grown at 20 °C, and transferred every day to new NGM plates seeded with E. coli to avoid overlapping generations. The locomotor activity of nematodes was scored 7 days after the treatment in blind conditions and expressed as the body bends/min [26]. […]

CC(C)[C@@H](NC(=O)[C@H](N)CC(=O)O)C(=O)N[C@H](CCC(=O)O)C(=O)N[C@H](Cc1ccccc1)C(=O)N[C@H](CCCNC(=N)N)C(=O)N[C@H](Cc1c[nH]cn1)C(=O)NCC(=O)NCC(=O)NCC(=O)NCC(=O)NCC(=O)N[C@H](CCCNC(=N)N)C(=O)N[C@H](CCCCN)C(=O)N[C@H](CCCCN)C(=O)N[C@H](CCCNC(=N)N)C(=O)N[C@H](CCCNC(=N)N)C(=O)N[C@H](CCC(N)=O)C(=O)N[C@H](CCCNC(=N)N)C(=O)N[C@H](CCCNC(=N)N)C(=O)N[C@H](CCCNC(=N)N)C(=O)O [Aβ1-6A2V-TAT(D)] (H-[dD][dV][dE][dF][dR][dH]GGGGG[dR][dK][dK][dR][dR][dQ][dR][dR][dR]-OH; N-terminus assumed)
Dose dependence of the protection of worms from P301L brain homogenate (0-200 µM peptide, body bends 7 days after treatment): The effect was dose-dependent | Protection of worms from toxicity of P301L brain homogenate (30 µg protein/100 worms/100 µL, body bends 7 days after treatment, 50 µM peptide): protected worms from the toxicity caused by P301L brain homogenates | IC50 (0.1–200 µM peptide, 30 µg protein/100 worms/100 µL, 2 h exposure at room temperature, PBS pH 7.4, body bends 7 days after treatment, three independent experiments (N = 30), read-out: IC50 for protection of worms from P301L brain homogenate toxicity): 25.6 µM
